“Also recorded” adds a separate entry of the source. Read-outs that look alike come from different tables or passages of the source.
Key:
topoisomerase-I = assay: Inhibition of topoisomerase-I activity (in words); assay type: biochemical
[1] = Reactivity with thiophenol in dichloromethane
Description: (For a related example of thiophenol addition to α-methylene-γ-lactones, see: Marshall, J. A., et al., J. Org. Chem., 47, 699 (1982).) NMR analysis of the crude reaction mixture indicated formation of the expected adducts 58 and 59.

B-16 melanoma = assay type: in vivo, BD2 F1 mice
Description: Average body weight changes were recorded daily.
Tumor: B16 Melanoma Drug A = Camptothecin
Inoculation: 2 × 10^6 cells. S.C.
(§1) Schedule: QD × 5. I.P. started day 4

Sarcoma 180 = system: Sarcoma 180
Description: The control lane (Table A) indicates separate inoculation of nine mice with B-16 melanoma and sarcoma 180.
Anti-tumor activity of the newly synthesized compounds and the established drugs (as positive controls) against solid tumors (B-16 melanoma and sarcoma 180) was tested in BD2 F1 mice. Tumor (about 2.5×10^6 cells) was inoculated subcutaneously (s.c.). Treatment with the drug started on day 4 after inoculation. The drug was injected intraperitoneously (i.p) daily (QD) for five days. Control mice received the same volume (50 μl) of the solvent vehicle (Dinso) as the drug-treated animals. Tumor size was evaluated every few days using a caliper for both the control and the treated group. Average body weight changes were recorded daily. Any lethality due to high dose drug toxicity or due to tumor progression was also recorded.
as §1

[2] = Cytotoxicity of compound 33 (in words); assay type: cell-based; conditions: relative to camptothecin
844K cells = assay: Cytotoxicity, XTT assay, 844K cells (so in the source); assay type: cell-based; conditions: Table II, read-out: Inhibitory Concentrations IC50
Description: (§2) The synthesized compounds were evaluated for their cytotoxic effects on HL-60 (human promyelocytic leukemia) and 833K cells. The assay was conducted in 96-well microplates. The compounds were serially diluted in 4 to 6 steps with dimethylsulfoxide and added to cell incubation medium (RPMI 1640 containing 10% fetal. […]) at the final concentration of 1.0% dimethylsulfoxide in the medium. The cytotoxicity of the compounds were determined by the XTT-microculture tetrazolium assay: 2',3'-bis(2-methoxy-4-nitro-5-sulfophenyl)-3-[(phenylamino)carbonyl]-2H-tetrazolium hydroxide (XTT) was prepared at 1 mg/mL in prewarmed (37° C.) medium without serum. Phenazine methosulfate (PMS) and fresh XTT were mixed together to obtain 0.075 mM PMS-XTT solution (25 mL of the stock with 5 mg PMS added per 5 mL of 1 mg/mL XTT). Fifty microliters of this mixture were added to each well of the cell culture after 72 hours exposure to the testing compound. After incubation at 37° C. for 6 hours, the absorbance was determined at 450 nm and 630 nm with a microplate reader (EL 340, Bio-Tek Instruments, Inc., Winooski, Vt.). THe median-effect inhibitory concentration (IC50) was determined from a medium-effect plot using computer software for the purpose.

[3] = system: HL-60 cells (human promyelocytic leukemia); assay: Cytotoxicity, XTT assay, HL-60 cell growth, 72 hr exposure; assay type: cell-based
Description: as §2
(§3) The results of the assay of cytotoxicity towards HL-60 and 833K cells of several analogues of camptothecin prepared in accord with the invention are illustrated in the accompanying Tables I and II, along with comparison data for native camptothecin. The data shown indicate that the camptothecin analogues prepared by the new methods provided by the invention have significant cytotoxic activity against cancer cells. […]

833K cells = assay: Cytotoxicity, XTT assay, 833K cell growth, 72 hr exposure; assay type: cell-based; conditions: for IC50: read-out: Inhibitory Concentrations IC50; for IC70: read-out: Inhibitory Concentrations IC70; for IC95: read-out: Inhibitory Concentrations IC95
Description: as §2, §3

[4] = B-16 melanoma, 10 mg/kg i.p. QD × 5, day 7
[5] = B-16 melanoma, 30 mg/kg i.p. QD × 5, day 7
[6] = Homo sapiens, HL-60, 72 h, Table I, HL-60 (head HL-6), 72 hr, XTT, read-out: Inhibitory Concentrations IC50
[7] = Homo sapiens, HL-60, 72 h, Table I, HL-60 (head HL-6), 72 hr, XTT, read-out: Inhibitory Concentrations IC70
[8] = Homo sapiens, HL-60, 72 h, Table I, HL-60 (head HL-6), 72 hr, XTT, read-out: Inhibitory Concentrations IC95
[9] = Homo sapiens, HL-60, 72 h, Table II, HL-60, 72 hr, XTT, read-out: Inhibitory Concentrations IC50
[10] = Homo sapiens, HL-60, 72 h, Table II, HL-60, 72 hr, XTT, read-out: Inhibitory Concentrations IC70
[11] = Homo sapiens, HL-60, 72 h, Table II, HL-60, 72 hr, XTT, read-out: Inhibitory Concentrations IC95
[12] = Homo sapiens, 72 h, Table I, 72 hr, XTT
[13] = Homo sapiens, Table I, 72 hr, XTT
[14] = Table I, HL-60 (head HL-6), 72 hr, XTT
[15] = Table I, HL-60 (head HL-6), 72 hr, XTT, read-out: Inhibitory Concentrations IC50
[16] = Table II, HL-60, 72 hr, XTT, read-out: Inhibitory Concentrations IC50
[17] = Table II, HL-60, 72 hr, XTT, read-out: Inhibitory Concentrations IC70
[18] = Table II, HL-60, 72 hr, XTT, read-out: Inhibitory Concentrations IC95
[19] = Homo sapiens, HL-60, 72 h, read-out: Inhibitory Concentrations IC50, Table I, HL-60 (head HL-6), 72 hr, XTT
[20] = Homo sapiens, HL-60, 72 h, read-out: Inhibitory Concentrations IC50, Table II, HL-60, 72 hr, XTT
[21] = Homo sapiens, HL-60, 72 h, read-out: Inhibitory Concentrations IC70, Table I, HL-60 (head HL-6), 72 hr, XTT
[22] = Homo sapiens, HL-60, 72 h, read-out: Inhibitory Concentrations IC70, Table II, HL-60, 72 hr, XTT
[23] = Homo sapiens, HL-60, 72 h, read-out: Inhibitory Concentrations IC95, Table I, HL-60 (head HL-6), 72 hr, XTT
[24] = Homo sapiens, HL-60, 72 h, read-out: Inhibitory Concentrations IC95, Table II, HL-60, 72 hr, XTT

With C=C1C(=O)OCc2c1cc1n(c2=O)Cc2cc3ccccc3nc2-1 [Compound 32, 18-nor-anhydrocamptothecin] the “inhibition of topoisomerase-I activity” value (topoisomerase-I) was “potent camptothecin-like inhibition of topoisomerase-I activity” and the reaction with thiophenol [1] was “consumption of starting material”.

In the case of C=C1C(=O)OCc2c1cc1n(c2=O)Cc2c-1nc1ccc(O)cc1c2CC [Compound 33, 7-Ethyl-10-hydroxy-18-nor-anhydrocamptothecin], the “AVERAGE TUMOR VOLUME” value (B-16 melanoma; B16 melanoma, 10 mg/kg, day 7) is reported as 0.163 CM^3, the “PERCENT OF CONTROL (tumor volume)” value (B-16 melanoma; B16 melanoma, 10 mg/kg, day 7) is reported as 85.8% and the “AVERAGE TUMOR VOLUME” value (B-16 melanoma; B16 melanoma, 10 mg/kg, day 14) is reported as 2.320 CM^3. For the same molecule, the “AWC (average weight change)” value (B-16 melanoma; B16 melanoma, 10 mg/kg, day 14) was “+2.7 GM”, the “PERCENT OF CONTROL (tumor volume)” value (B-16 melanoma; B16 melanoma, 10 mg/kg, day 14) was 72.7% and the “AVERAGE TUMOR VOLUME” value (B-16 melanoma; B16 melanoma, 30 mg/kg, day 7) was 0.036 CM^3. The “PERCENT OF CONTROL (tumor volume)” value (B-16 melanoma; B16 melanoma, 30 mg/kg, day 7) was 18.9%, the “AVERAGE TUMOR VOLUME” value (B-16 melanoma; B16 melanoma, 30 mg/kg, day 14) was 2.925 CM^3 and the “AWC (average weight change)” value (B-16 melanoma; B16 melanoma, 30 mg/kg, day 14) was “+2.7 GM”. The “PERCENT OF CONTROL (tumor volume)” value (B-16 melanoma; B16 melanoma, 30 mg/kg, day 14) was 91.7%, the “activity compared with authentic camptothecin” value (B-16 melanoma; B-16 melanoma and sarcoma 180 together) was “compares favorably with that of authentic camptothecin” and the decreased body weight (B-16 melanoma; B-16 melanoma, 10 mg/kg) was 1.4 gm. For the same molecule, the tumor volume decrease (B-16 melanoma; B-16 melanoma, 10 mg/kg) was 14%, the “AWC (average weight change)” value (B-16 melanoma; [4]) was -1.4 gm and the “Ave Tumor Volume (T/C)” value (B-16 melanoma; [4]) was 0.858. For the same molecule, the decreased body weight (B-16 melanoma; B-16 melanoma, 30 mg/kg) was 1.9 gm, the tumor volume decrease (B-16 melanoma; B-16 melanoma, 30 mg/kg) was 81% and the “AWC (average weight change)” value (B-16 melanoma; [5]) was -1.9 gm. The “Ave Tumor Volume (T/C)” value (B-16 melanoma; [5]) was 0.189, the “DEATHS (D/L)” value (Sarcoma 180; Sarcoma 180, 10 mg/kg, day 7) was 0/2 and the “DEATHS (D/L)” value (Sarcoma 180; Sarcoma 180, 10 mg/kg, day 14) was 0/2. The “DEATHS (D/L)” value (Sarcoma 180; Sarcoma 180, 30 mg/kg, day 7, death on day 4 after treatment, listed as 18-nor-20-dehydro-7-ethyl-10-hydroxycamptothecin) was “one of the two subjects died after day 4 of treatment”, the “DEATHS (D/L)” value (Sarcoma 180; Sarcoma 180, 30 mg/kg, day 7, death on day 4 after treatment, listed as 20-CH2 -7-Et-10-OH-CPT) was “One of two mice died on day 4 after treatment” and the “DEATHS (D/L)” value (Sarcoma 180; Sarcoma 180, 30 mg/kg, day 7, death on day 4 after treatment, listed as B) was 1/2. For the same molecule, the “DEATHS (D/L)” value (Sarcoma 180; Sarcoma 180, 30 mg/kg, day 14) was 0/1, the “inhibition of topoisomerase-I activity” value (topoisomerase-I) was “potent camptothecin-like inhibition of topoisomerase-I activity; also recorded: still retaining enzyme inhibitory function” and the cytotoxicity [2] was “significantly reduced levels relative to camptothecin”. The reaction with thiophenol [1] was “consumption of starting material”.

Work on CC[C@@]1(O)C(=O)OCc2c1cc1n(c2=O)Cc2cc3c(CN(C)C)c(O)ccc3nc2-1 [Topotecan] yielded an IC50 (844K cells) of 46 nM.

In the case of CCC1C(=O)OCc2c1cc1n(c2=O)Cc2cc3ccccc3nc2-1 (stereo not shown) [WS-2, 20-Deoxycamptothecin], the IC50 [3, 6] is reported as 39 nM, the IC70 [3, 7] is reported as 52 nM and the IC95 [3, 8] is reported as 109 nM. The IC50 [3, 9] was 39 nM, the IC70 [3, 10] was 52 nM and the IC95 [3, 11] was 109 nM. The IC50 (833K cells; [12]) was 310 nM, the IC70 (833K cells; [13]) was 143 nM and the IC95 (833K cells; [13]) was 3170 nM.

For CCC1C(=O)OCc2c1c(C(=O)OC)c1n(c2=O)Cc2cc3ccccc3nc2-1 (stereo not shown) [WS-3, 14-Carbomethoxy-20-deoxycamptothecin], the “Inhibitory Concentrations IC70” value [3, 14] was 0.318, the “Inhibitory Concentrations IC95” value [3, 14] was 1.082 and the IC50 [3, 15] was 914 nM. For the same molecule, the IC50 [3, 16] was 194 nM, the IC70 [3, 17] was 318 nM and the IC95 [3, 18] was 1082 nM. The IC50 (833K cells; Table I, 72 hr, XTT) was greater than 50000 nM.

For CCC1C(=O)OCc2c1c(C(=O)OC)c1n(c2=O)Cc2cc3ccccc3nc2-1 (stereo not shown) [WS-4, 14-Carbomethoxy-20-deoxycamptothecin], the “Inhibitory Concentrations IC70” value [3, 14] was 12.0, the “Inhibitory Concentrations IC95” value [3, 14] was 618.7 and the IC50 [3, 15] was 2440 nM. It also gave an IC50 [3, 16] of 2440 nM, an IC70 [3, 17] of 12000 nM and an IC95 [3, 18] of 618700 nM. For the same molecule, the IC70 (833K cells; [13]) was 5800 nM, the IC95 (833K cells; [13]) was 59800 nM and the IC50 (833K cells; Table I, 72 hr, XTT) was 2260 nM.

With CCC1(O)C(=O)OCc2c1c(C(=O)OC)c1n(c2=O)Cc2cc3ccccc3nc2-1 (stereo not shown) [WS-5, 14-Carbomethoxy-Camptothecin] the IC50 [3, 19] was greater than 5000 nM, the IC50 [3, 20] was greater than 5000 nM and the IC50 (833K cells; Homo sapiens, 72 h) was 63500 nM. For the same molecule, the IC70 (833K cells; Homo sapiens, 72 h) was 83700 nM and the IC95 (833K cells; Homo sapiens, 72 h) was 898000 ± 750000 nM.

CCC1(O)C(=O)OC(C)c2c1cc1n(c2=O)Cc2cc3ccccc3nc2-1 (stereo not shown) [WS-6, 17-Methylcamptothecin] showed an IC50 [3, 19] of 266 nM, an IC50 [3, 20] of 266 nM and an IC70 [3, 21] of 432 nM. For the same molecule, the IC70 [3, 22] was 432 nM, the IC95 [3, 23] was 1430 nM and the IC95 [3, 24] was 1430 nM. It also gave an IC50 (833K cells; Homo sapiens, 72 h) of 3710 nM, an IC70 (833K cells; Homo sapiens, 72 h) of 7340 nM and an IC95 (833K cells; Homo sapiens, 72 h) of 40100 nM.

In the case of CC1(O)C(=O)OCc2c1cc1n(c2=O)Cc2cc3ccccc3nc2-1 (stereo not shown) [WS-7, 20-Methylcamptothecin], the IC50 [3, 19] is reported as 62 nM, the IC50 [3, 20] is reported as 62 nM and the IC70 [3, 21] is reported as 90 nM. For the same molecule, the IC70 [3, 22] was 90 nM, the IC95 [3, 23] was 229 nM and the IC95 [3, 24] was 229 nM. For the same molecule, the IC50 (833K cells; Homo sapiens, 72 h) was 82 nM, the IC70 (833K cells; Homo sapiens, 72 h) was 290 nM and the IC95 (833K cells; Homo sapiens, 72 h) was 7160 nM.

CC=C1C(=O)OCc2c1cc1n(c2=O)Cc2cc3ccccc3nc2-1 [WS-8, 20-dehydrated-CPT] showed an IC50 [3, 6] of 3440 nM, an IC70 [3, 7] of 5470 nM and an IC95 [3, 8] of 17100 nM. It also gave an IC50 [3, 9] of 3440 nM, an IC70 [3, 10] of 5470 nM and an IC95 [3, 11] of 17100 nM. It also gave an IC50 (833K cells; [12]) of 1700 nM, an IC70 (833K cells; [13]) of 4750 nM and an IC95 (833K cells; [13]) of 50400 ± 13800 nM.
